Active and inactive are the calls of the source. The rule behind the calls is not given here.
Columns and labels:
[1] = biological target: T1, Protein deacetylase HDAC6 (Homo sapiens) (UniProt Q9UBN7); assay: Induction of HDAC6 degradation in human RS4-11 cells at 0.5 to 10 uM incubated for 12 hrs by Western blotting analysis; format: cell-based; conditions: dose 0.5-10 µM
T1 sequence (whole entry): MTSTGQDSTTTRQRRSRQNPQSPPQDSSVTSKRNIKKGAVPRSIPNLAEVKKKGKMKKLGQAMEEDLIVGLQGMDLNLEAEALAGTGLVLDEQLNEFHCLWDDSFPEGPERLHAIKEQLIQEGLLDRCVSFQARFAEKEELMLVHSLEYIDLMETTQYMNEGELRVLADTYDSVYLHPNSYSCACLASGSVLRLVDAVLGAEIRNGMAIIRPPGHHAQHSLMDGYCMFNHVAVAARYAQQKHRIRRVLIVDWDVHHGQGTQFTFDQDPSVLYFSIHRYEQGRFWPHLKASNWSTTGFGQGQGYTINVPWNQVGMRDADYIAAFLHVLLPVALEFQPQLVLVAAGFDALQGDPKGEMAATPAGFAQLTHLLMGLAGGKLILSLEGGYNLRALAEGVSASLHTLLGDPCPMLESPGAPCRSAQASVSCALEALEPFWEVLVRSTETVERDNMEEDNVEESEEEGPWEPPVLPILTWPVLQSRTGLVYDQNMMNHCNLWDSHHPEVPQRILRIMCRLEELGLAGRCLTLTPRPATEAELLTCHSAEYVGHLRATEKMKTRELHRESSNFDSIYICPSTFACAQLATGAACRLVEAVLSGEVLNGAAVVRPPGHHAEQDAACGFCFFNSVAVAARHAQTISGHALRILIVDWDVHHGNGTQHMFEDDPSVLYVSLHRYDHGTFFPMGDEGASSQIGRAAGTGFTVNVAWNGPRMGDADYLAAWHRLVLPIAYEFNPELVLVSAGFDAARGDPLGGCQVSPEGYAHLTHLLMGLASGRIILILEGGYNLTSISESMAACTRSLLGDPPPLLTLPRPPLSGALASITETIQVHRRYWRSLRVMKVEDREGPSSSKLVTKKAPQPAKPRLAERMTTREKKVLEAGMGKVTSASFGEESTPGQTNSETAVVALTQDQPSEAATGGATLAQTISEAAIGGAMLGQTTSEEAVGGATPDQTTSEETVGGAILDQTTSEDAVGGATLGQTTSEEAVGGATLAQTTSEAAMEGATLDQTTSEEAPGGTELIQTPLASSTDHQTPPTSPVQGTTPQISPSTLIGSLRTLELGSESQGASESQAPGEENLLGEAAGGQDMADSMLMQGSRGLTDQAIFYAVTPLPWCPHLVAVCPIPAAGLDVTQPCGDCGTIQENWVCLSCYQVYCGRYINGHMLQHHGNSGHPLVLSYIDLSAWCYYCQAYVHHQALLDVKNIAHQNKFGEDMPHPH

[2] = biological target: DNA-binding protein Ikaros (Homo sapiens) (UniProt Q13422); assay: Induction of IKZF1 degradation in human RS4-11 cells at 1 to 10 uM by Western blotting analysis; format: cell-based; conditions: dose 1-10 µM
[3] = biological target: Histone deacetylase (Homo sapiens) (UniProt Q13547+O15379+Q9UBN7+Q92769+Q9UQL6+Q8WUI4+Q9BY41+Q96DB2+P56524+Q9UKV0+Q969S8); assay: Inhibition of HDAC in human RS4-11 cells assessed as upregulation of histone H3 acetylation by Western blot assay; format: cell-based
[4] = biological target: T1, Protein deacetylase HDAC6 (Homo sapiens); assay: Inhibition of HDAC6 in human RS4-11 cells assessed as effect on alpha-tubulin acetylation by Western blot assay; format: cell-based
[5] = biological target: T2, Histone deacetylase 7 (Homo sapiens, UniProt Q8WUI4); assay: Inhibition of HDAC7 in human HeLa cells nuclear extract using BocLys(acetyl)-AMC as substrate incubated for 1 hr by fluorescence plate reader analysis; format: subcellular, Nucleus
T2 sequence (Q8WUI4 whole entry): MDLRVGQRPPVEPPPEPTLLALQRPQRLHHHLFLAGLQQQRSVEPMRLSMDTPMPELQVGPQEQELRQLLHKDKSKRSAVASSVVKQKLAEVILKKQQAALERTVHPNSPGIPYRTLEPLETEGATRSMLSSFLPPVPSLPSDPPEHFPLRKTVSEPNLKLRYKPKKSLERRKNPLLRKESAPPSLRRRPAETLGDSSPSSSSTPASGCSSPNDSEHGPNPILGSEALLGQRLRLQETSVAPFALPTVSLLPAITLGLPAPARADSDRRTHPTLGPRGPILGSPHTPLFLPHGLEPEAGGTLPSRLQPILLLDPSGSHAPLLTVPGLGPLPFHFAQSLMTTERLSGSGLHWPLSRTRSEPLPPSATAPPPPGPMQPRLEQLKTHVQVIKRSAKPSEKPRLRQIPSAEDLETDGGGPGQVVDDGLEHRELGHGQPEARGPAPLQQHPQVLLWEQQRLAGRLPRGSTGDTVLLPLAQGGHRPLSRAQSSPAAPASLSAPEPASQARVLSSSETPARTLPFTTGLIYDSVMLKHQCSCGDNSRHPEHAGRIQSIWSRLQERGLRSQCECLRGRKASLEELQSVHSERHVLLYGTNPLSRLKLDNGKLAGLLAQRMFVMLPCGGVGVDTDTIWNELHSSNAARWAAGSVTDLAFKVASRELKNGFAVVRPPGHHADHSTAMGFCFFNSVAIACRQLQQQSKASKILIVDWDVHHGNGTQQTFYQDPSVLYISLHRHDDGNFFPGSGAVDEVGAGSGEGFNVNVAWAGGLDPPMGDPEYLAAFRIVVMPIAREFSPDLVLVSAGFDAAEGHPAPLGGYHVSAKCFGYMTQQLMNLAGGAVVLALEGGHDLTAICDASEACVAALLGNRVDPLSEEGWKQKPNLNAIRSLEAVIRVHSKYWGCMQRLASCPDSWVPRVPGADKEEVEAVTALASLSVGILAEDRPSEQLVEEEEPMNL

[6] = biological target: T3, Protein deacetylase HDAC6 (Homo sapiens, UniProt Q9UBN7); assay: Inhibition of HDAC6 (unknown origin) using BocLys(acetyl)-AMC as substrate incubated for 1 hr by fluorescence plate reader analysis
T3 sequence (Q9UBN7 whole entry): T1 sequence (whole entry)

[7] = tested on: A549; assay: Antiproliferative activity against human A549 cells assessed as cell growth inhibition at 5 uM incubated for 48 hrs by CCK-8 assay; format: functional, cell-based
[8] = tested on: HeLa; assay: Antiproliferative activity against human HeLa cells assessed as cell growth inhibition at 5 uM incubated for 48 hrs by CCK-8 assay; format: functional, cell-based
[9] = tested on: RPMI-8226; assay: Antiproliferative activity against human RPMI-8226 cells assessed as cell growth inhibition incubated for 48 hrs by CCK-8 assay; format: functional, cell-based; conditions: RPMI-8226, 48 h
[10] = biological target: T1, Protein deacetylase HDAC6 (Homo sapiens); assay: Inhibition of HDAC6 in human RS4-11 cells assessed as upregulation of alpha-tubulin acetylation at 1 to 10 uM by Western blot assay; format: cell-based; conditions: dose 1-10 µM
[11] = tested on: RS4-11; assay: Induction of apoptosis in human RS4-11 cells assessed as upregulation of p21 at 1 to 10 uM; format: functional, cell-based; conditions: dose 1-10 µM
[12] = tested on: RS4-11; assay: Induction of apoptosis in human RS4-11 cells assessed as upregulation of Bax level; format: functional, cell-based; conditions: dose 1-10 µM
[13] = tested on: RS4-11; assay: Induction of cell cycle arrest in human RS4-11 cells assessed as S phase arrest after 48 hrs by PI staining based flow cytometry analysis; format: functional; conditions: dose 1-10 µM

DNA-binding protein Ikaros (Homo sapiens), sequence (Q13422 whole entry): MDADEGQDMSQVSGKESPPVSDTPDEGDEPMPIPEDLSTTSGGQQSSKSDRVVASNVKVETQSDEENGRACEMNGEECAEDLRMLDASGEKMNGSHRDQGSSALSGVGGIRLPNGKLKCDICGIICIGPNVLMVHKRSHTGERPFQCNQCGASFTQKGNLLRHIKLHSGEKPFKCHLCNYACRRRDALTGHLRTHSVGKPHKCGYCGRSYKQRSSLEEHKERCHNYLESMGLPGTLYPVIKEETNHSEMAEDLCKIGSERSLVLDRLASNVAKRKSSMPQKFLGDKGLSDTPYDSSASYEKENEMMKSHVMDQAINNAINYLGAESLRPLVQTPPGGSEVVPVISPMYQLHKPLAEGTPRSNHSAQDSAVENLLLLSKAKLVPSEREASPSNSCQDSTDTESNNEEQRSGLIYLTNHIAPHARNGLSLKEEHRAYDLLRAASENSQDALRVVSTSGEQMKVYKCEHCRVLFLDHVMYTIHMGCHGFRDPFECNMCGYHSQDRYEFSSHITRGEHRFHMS

| Compound | Activity [1] | Activity [2] | inhibition [3] | Activity [4] | IC50 [5] | IC50 [6] | Activity [7] | Activity [8] | IC50 [9] | Activity [10] | Activity [11] | Activity [12] | Activity [13] |
| --- | --- | --- | --- | --- | --- | --- | --- | --- | --- | --- | --- | --- | --- |
| Nc1cc(F)ccc1NC(=O)c1ccc(CNc2cccc3c2C(=O)N(C2CCC(=O)NC2=O)C3=O)cc1 (stereo unspecified) | inactive | Active | Active | inactive | > 2 µM | > 2 µM | inactive | inactive | 3.72 µM | inactive | Active | Dose-Dependent Effect | Dose-Dependent Effect |
| Nc1ccccc1NC(=O)c1ccc(CNc2cccc3c2C(=O)N(C2CCC(=O)NC2=O)C3=O)cc1 (stereo unspecified) | inactive | Active | Active | inactive | > 2 µM | > 2 µM | inactive | inactive | 5.75 µM | inactive | Active | Dose-Dependent Effect | Dose-Dependent Effect |

— ChEMBL document CHEMBL5532657, “Serendipitous discovery of Class I HDAC inhibitors from rational design of molecular glue degraders targeting HDAC” (Eur J Med Chem, 2024)
